In general, EC50 refers to the concentration at which the effect is half-maximal. A low value points to an effect from little substance.

This assay has as its system fibroblast to myofibroblast transdifferentiation (primary human lung fibroblasts and primary rodent HSCs). Put plainly: High content imaging and western based assay of fibroblast to myofibroblast transdifferentiation (α-SMA). The note with it: graded, TGF-β induced fibroblast to myofibroblast transdifferentiation. The format is cell-based. An excerpt:
A high content imaging assay, based on α-SMA staining and cell morphological changes associated with fibroblast to myofibroblast transdifferentiation, was established using primary human lung fibroblasts and primary rodent HSCs. Conditions, involving serum starvation and subsequent TGF-β treatment, were identified that facilitate robust in vitro transdifferentiation in a miniaturized (384 well plate) format that is amenable to high throughput small molecule screening. A selective ALK-5 TGF-β1 receptor inhibitor (SB-431542) was used as a positive control. […] This assay was used to identify a hit compound (itraconazole) and was used to evaluate focused panels of itraconazole analogues generated from medicinal chemistry efforts.
The activity of Itraconazole and its analogues was confirmed by analyzing changes in gene expression of multiple genes associated with fibroblast to myofibroblast transdifferentiation using biochemical methods (i.e., Western blot and RT-PCR). These 4-day assays were used to evaluate sets of 6 compounds at a time in 4-point dose response fashion.
After 24 hour incubation, cells were treated with the indicated doses of itraconazole for 48 hours in the presence of 10 ng/mL of TGF-β1 in hepatic stellate medium. Following fixation and staining with an anti smooth muscle actin antibody, cell morphology was analyzed with a Cellomics cell insight imaging reader (FIG. 1 for representative images). Cells were analyzed for mean cellular area of a-SMA staining (FIG. 5a) or mean fluorescence intensity of SMA staining (FIG. 5b).
After 24 incubation, medium was changed to assay medium containing TGF-β1 (10 ng/mL) and simultaneously treated with itraconazole (10 μM), SB431542 (10 μM) or vehicle control (FIG. 6).
As to `CCC(C)n1ncn(-c2ccc(N3CCN(c4ccc(OC[C@@H]5CO[C@@](Cn6nccn6)(c6ccc(Cl)cc6Cl)O5)c(Cl)c4)CC3)cc2)c1=O` (stereo partly shown) [Compound 48], the EC50 fell in the range of 0.5 to 5 µM. With `CCC(C)n1ncn(-c2ccc(N3CCN(c4ccc(OC[C@@H]5CO[C@@](Cn6cncn6)(c6ccc(F)cc6F)O5)cc4)CC3)cc2)c1=O` (stereo partly shown) [Compound 6] the figure was 0.5 to 5 µM; with `CCc1ccc([C@]2(Cn3nccn3)OC[C@@H](COc3ccc(N4CCN(c5ccc(-n6cnn(C(C)CC)c6=O)cc5)CC4)cc3)O2)cc1` (stereo partly shown) [Compound 34], 0.5 to 5 µM; with `CCC(C)n1ncn(-c2ccc(N3CCN(c4ccc(OC[C@@H]5CO[C@@](Cn6nccn6)(c6ccccn6)O5)cc4)CC3)cc2)c1=O` (stereo partly shown) [Compound 75], 5 to 30 µM. The molecule `CCC(C)n1ncn(-c2ccc(N3CCN(c4ccc(OC[C@@H]5CO[C@@](Cn6cnc(Br)n6)(c6ccc(F)cc6F)O5)cc4)CC3)cc2)c1=O` (stereo partly shown) [Compound 9] displayed an EC50 of 5 to 30 µM. To `CCC(C)n1ncn(-c2ccc(N3CCN(c4ccc(OC[C@@H]5CO[C@@](Cn6nccn6)(c6cccc7ccccc67)O5)cc4)CC3)cc2)c1=O` (stereo partly shown) [Compound 63] belongs 5 to 30 µM; to `CCC(C)n1ncn(-c2ccc(N3CCN(c4ccc(OC[C@H]5CO[C@@](Cn6cncn6)(c6ccc(F)cc6F)O5)cc4)CC3)cc2)c1=O` (mixture of isomers) [Compound 7], 5 to 30 µM. With `CC(O)C(C)n1ncn(-c2ccc(N3CCN(c4ccc(OC[C@@H]5CO[C@@](Cn6nccn6)(c6ccc(Cl)cc6Cl)O5)cc4)CC3)cc2)c1=O` (stereo partly shown) [Compound 28] the figure was 0.5 to 5 µM; with `CCC(C)n1ncn(-c2ccc(N3CCN(c4ccc(OC[C@@H]5CO[C@@](Cn6nccn6)(c6ccccc6OC)O5)cc4)CC3)cc2)c1=O` (stereo partly shown) [Compound 45], 5 to 30 µM; with `CCC(C)n1ncn(-c2ccc(N3CCN(c4ccc(OC[C@@H]5CO[C@@](Cn6nccn6)(c6ccc(S(C)(=O)=O)cc6)O5)cc4)CC3)cc2)c1=O` (stereo partly shown) [Compound 44], 5 to 30 µM. To `CC(O)C(C)n1ncn(-c2ccc(N3CCN(c4ccc(OC[C@@H]5CO[C@@](Cc6ccnnc6)(c6ccc(Cl)cc6Cl)O5)cc4)CC3)cc2)c1=O` (stereo partly shown) [Compound 29] belongs below 0.5 µM. In the case of `CCC(C)n1cnn(-c2ccc(N3CCN(c4ccc(OC[C@@H]5CO[C@@](Cn6nccn6)(c6ccc(F)cc6F)O5)cc4)CC3)cc2)c1=O` (stereo partly shown) [Compound 3], the EC50 was 5 to 30 µM. To `CCc1cc(OC[C@@H]2CO[C@@](Cn3nccn3)(c3ccc(Cl)cc3Cl)O2)ccc1N1CCN(c2ccc(-n3cnn(C(C)CC)c3=O)cc2)CC1` (stereo partly shown) [Compound 81] belongs 5 to 30 µM; to `CCC(C)n1ncn(-c2ccc(N3CCN(c4ccc(OC[C@@H]5CO[C@@](Cn6nc(Br)nc6Br)(c6ccc(F)cc6F)O5)cc4)CC3)cc2)c1=O` (stereo partly shown) [Compound 11], 5 to 30 µM; to `CCC(C)n1ncn(-c2ccc(N3CCN(c4ccc(OC[C@@H]5CO[C@@](Cn6nccn6)(c6cnccn6)O5)cc4)CC3)cc2)c1=O` (stereo partly shown) [Compound 57], 5 to 30 µM. With `CCC(C)n1ncn(-c2ccc(N3CCN(c4ccc(OC[C@@H]5CO[C@@](Cn6nccn6)(C6CCOCC6)O5)cc4)CC3)cc2)c1=O` (stereo partly shown) [Compound 92] the figure was 5 to 30 µM. To `CCC(C)n1ncn(-c2ccc(N3CCN(c4ccc(OC[C@@H]5CO[C@@](Cn6nccn6)(c6ccc(Br)cc6)O5)cc4)CC3)cc2)c1=O` (stereo partly shown) [Compound 35] belongs 0.5 to 5 µM; to `CCC(C)n1ncn(-c2ccc(N3CCN(c4ccc(OC[C@@H]5CO[C@@](Cn6nccn6)(C6CCCCC6)O5)cc4)CC3)cc2)c1=O` (stereo partly shown) [Compound 58], 5 to 30 µM.

Molecule `CCC(C)n1ncn(-c2ccc(N3CCN(c4ccc(OC[C@@H]5CO[C@@](Cn6nccn6)(c6ccccc6C(F)(F)F)O5)cc4)CC3)cc2)c1=O` (stereo partly shown) [Compound 43] returned a 50% effective concentration (EC50) of 5 to 30 µM.

For `CCC(C)n1cnn(-c2ccc(N3CCN(c4ccc(OC[C@@H]5CO[C@@](Cn6nc7ccccc7n6)(c6ccc(Cl)cc6Cl)O5)cc4)CC3)cc2)c1=O` (stereo partly shown) [Compound 16], the half-maximal effective concentration (EC50) fell in the range of 5 to 30 µM. `CCC(C)n1cnn(-c2ccc(N3CCN(c4ccc(OC[C@@H]5CO[C@@](Cn6cnc(C)n6)(c6ccc(F)cc6F)O5)cc4)CC3)cc2)c1=O` (stereo partly shown) [Compound 5] came in with an EC50 of 5 to 30 µM. As for `CCC(C)n1ncn(-c2ccc(N3CCN(c4ccc(OC[C@@H]5CO[C@@](Cn6cnc(C(F)(F)F)n6)(c6ccc(F)cc6F)O5)cc4)CC3)cc2)c1=O` (stereo partly shown) [Compound 10], the EC50 is 5 to 30 µM. With `CCC(C)n1ncn(-c2ccc(N3CCN(c4ccc(OC[C@@H]5CO[C@](Cn6nccn6)(c6ccc(Cl)cc6Cl)O5)cc4)CC3)cc2)c1=O` (mixture of isomers) [Compound 18] the figure was 5 to 30 µM; with `CCC(C)n1ncn(-c2ccc(N3CCN(c4ccc(OC[C@@H]5CO[C@@](Cn6nccn6)(c6ccncc6)O5)cc4)CC3)cc2)c1=O` (stereo partly shown) [Compound 83], 5 to 30 µM. To `CC(C)n1ncn(-c2ccc(N3CCN(c4ccc(OC[C@@H]5CO[C@@](Cn6cncn6)(c6ccc(F)cc6F)O5)cc4)CC3)cc2)c1=O` [Compound 13] belongs 5 to 30 µM; to `CCC(C)n1ncn(-c2ccc(N3CCN(c4ccc(OC[C@@H]5CO[C@@](Cn6nccn6)(c6ccc(-c7ccccc7)cc6)O5)cc4)CC3)cc2)c1=O` (stereo partly shown) [Compound 72], 5 to 30 µM; to `CCC(C)n1ncn(-c2ccc(N3CCN(c4ccc(OC[C@@H]5CO[C@@](Cn6nccn6)(C6CCC6)O5)cc4)CC3)cc2)c1=O` (stereo partly shown) [Compound 88], 0.5 to 5 µM.

As for `CC[C@@H]([C@H](C)O)n1ncn(-c2ccc(N3CCN(c4ccc(OC[C@@H]5CO[C@@](Cn6cncn6)(c6ccc(F)cc6F)C5)cc4)CC3)cc2)c1=O` (racemic) [POS, reference compound], the half-maximal effective concentration (EC50) is 5 to 30 µM. For the molecule `CCC(C)n1ncn(-c2ccc(N3CCN(c4ccc(OC[C@@H]5CO[C@@](Cn6nccn6)(C6CCNCC6)O5)cc4)CC3)cc2)c1=O` (stereo partly shown) [Compound 93], the EC50 was 5 to 30 µM. With `CCC(C)n1cnn(-c2ccc(N3CCN(c4ccc(OC[C@@H]5CO[C@@](Cn6nnc7ccccc76)(c6ccc(F)cc6F)O5)cc4)CC3)cc2)c1=O` (stereo partly shown) [Compound 8] the figure was 0.5 to 5 µM; with `CCC(C)n1ncn(-c2ccc(N3CCN(c4ccc(OC[C@@H]5CO[C@@](Cn6nccn6)(c6ccc(OC)cc6)O5)cc4)CC3)cc2)c1=O` (stereo partly shown) [Compound 39], 0.5 to 5 µM. With `CCC(C)n1ncn(-c2ccc(N3CCN(c4ccc(OC[C@@H]5CO[C@@](Cn6nccn6)(c6ccc(C)cc6)O5)cc4)CC3)cc2)c1=O` (stereo partly shown) [Compound 40] the figure was 0.5 to 5 µM. To `CCC(C)n1ncn(-c2ccc(N3CCN(c4ccc(OC[C@@H]5CO[C@@](Cn6nccn6)(c6ccc(C#N)cc6)O5)cc4)CC3)cc2)c1=O` (stereo partly shown) [Compound 37] belongs 0.5 to 5 µM; to `CCC(C)n1cnn(-c2ccc(N3CCN(c4ccc(OC[C@@H]5CO[C@@](Cn6ccc(C)n6)(c6ccc(F)cc6F)O5)cc4)CC3)cc2)c1=O` (stereo partly shown) [Compound 4], 5 to 30 µM.

In the case of `CCC(C)n1ncn(-c2ccc(N3CCN(c4ccc(OC[C@@H]5CO[C@@](Cn6nccn6)(c6cccc(Cl)c6)O5)cc4)CC3)cc2)c1=O` (stereo partly shown) [Compound 33], the EC50 is 0.5 to 5 µM.

`CCC(C)n1ncn(-c2ccc(N3CCN(c4ccc(OC[C@@H]5CO[C@@](Cn6nccn6)(c6ccc(Cl)cc6Cl)O5)cc4OC)CC3)cc2)c1=O` (stereo partly shown) [Compound 51] returned an EC50 of 0.5 to 5 µM. To `CCC(C)n1ncn(-c2ccc(N3CCN(c4ccc(OC[C@@H]5CO[C@@](Cn6nccn6)(c6ccc(Cl)cc6Cl)O5)cc4Cl)CC3)cc2)c1=O` (stereo partly shown) [Compound 53] belongs 0.5 to 5 µM.

Values taken from patent US9981956B2, “Small molecule inhibitors of fibrosis” (THE CALIFORNIA INSTITUTE FOR BIOMEDICAL RESEARCH, priority 2013, dated 2018).
